The values that follow come from PubChem BioAssay AID1259407 (Chemical Carcinogenesis Research Information System (CCRIS), 2018).

In this data set the test system is CCRIS mutagenicity, Ames/micronucleus/aberration tests. Put plainly: CCRIS mutagenicity studies.
[1] abbreviates: Test System: AMES SALMONELLA TYPHIMURIUM, Strain/Indicator: TA98, Metabolic Activation: NONE, Method: STANDARD PLATE.
[2] abbreviates: Test System: AMES SALMONELLA TYPHIMURIUM, Strain/Indicator: TA98, Metabolic Activation: RAT, LIVER, S-9, AROCLOR 1254, Method: STANDARD PLATE.
[3] abbreviates: Test System: AMES SALMONELLA TYPHIMURIUM, Strain/Indicator: TA100, Metabolic Activation: NONE, Method: STANDARD PLATE.
The mark [4] stands for this setting: Test System: AMES SALMONELLA TYPHIMURIUM, Strain/Indicator: TA100, Metabolic Activation: RAT, LIVER, S-9, AROCLOR 1254, Method: STANDARD PLATE.
The mark [5] stands for this setting: Test System: AMES SALMONELLA TYPHIMURIUM, Strain/Indicator: TA1535, Metabolic Activation: NONE, Method: STANDARD PLATE.
The mark [6] stands for this setting: Test System: AMES SALMONELLA TYPHIMURIUM, Strain/Indicator: TA1535, Metabolic Activation: RAT, LIVER, S-9, AROCLOR 1254, Method: STANDARD PLATE.
[7] abbreviates: Test System: AMES SALMONELLA TYPHIMURIUM, Strain/Indicator: TA1537, Metabolic Activation: NONE, Method: STANDARD PLATE.
The mark [8] stands for this setting: Test System: AMES SALMONELLA TYPHIMURIUM, Strain/Indicator: TA1537, Metabolic Activation: RAT, LIVER, S-9, AROCLOR 1254, Method: STANDARD PLATE.
[9] abbreviates: Test System: AMES SALMONELLA TYPHIMURIUM, Strain/Indicator: TA1538, Metabolic Activation: NONE, Method: STANDARD PLATE.
[10] abbreviates: Test System: AMES SALMONELLA TYPHIMURIUM, Strain/Indicator: TA1538, Metabolic Activation: RAT, LIVER, S-9, AROCLOR 1254, Method: STANDARD PLATE.
Where [11] appears, read: Test System: AMES SALMONELLA TYPHIMURIUM, Strain/Indicator: TA98, Metabolic Activation: NONE, Method: PREINCUBATION
The mark [12] stands for this setting: Test System: AMES SALMONELLA TYPHIMURIUM, Strain/Indicator: TA100, Metabolic Activation: NONE, Method: PREINCUBATION

Calls of active or inactive are those of the source. How the calls were made is not given here.

In the case of `C=C(C)C(=O)OCC(C)(C)C`, the mutagenic call was “inactive; negative” under setting [1]; “inactive; negative” under setting [2]; “inactive; negative” (Test System: AMES SALMONELLA TYPHIMURIUM, Strain/Indicator: TA98, Metabolic Activation: RAT, LIVER, S-9, SODIUM PHENOBARBITAL, Method: STANDARD PLATE); “inactive; negative” under setting [3]; “inactive; negative” under setting [4]; “inactive; negative” (Test System: AMES SALMONELLA TYPHIMURIUM, Strain/Indicator: TA100, Metabolic Activation: RAT, LIVER, S-9, SODIUM PHENOBARBITAL, Method: STANDARD PLATE). The mutagenic call is, setting by setting: under setting [5], “inactive; negative”; under setting [6], “inactive; negative”; (Test System: AMES SALMONELLA TYPHIMURIUM, Strain/Indicator: TA1535, Metabolic Activation: RAT, LIVER, S-9, SODIUM PHENOBARBITAL, Method: STANDARD PLATE) “inactive; negative”; under setting [7], “inactive; negative”; under setting [8], “inactive; negative”; (Test System: AMES SALMONELLA TYPHIMURIUM, Strain/Indicator: TA1537, Metabolic Activation: RAT, LIVER, S-9, SODIUM PHENOBARBITAL, Method: STANDARD PLATE) “inactive; negative”. Besides, the mutagenic call is, setting by setting: under setting [9], “inactive; negative”; under setting [10], “inactive; negative”; (Test System: AMES SALMONELLA TYPHIMURIUM, Strain/Indicator: TA1538, Metabolic Activation: RAT, LIVER, S-9, SODIUM PHENOBARBITAL, Method: STANDARD PLATE) “inactive; negative”.
On to `O=C(O)O`, for which the mutagenic call is “inactive; negative” (Test System: AMES SALMONELLA TYPHIMURIUM, Strain/Indicator: TA97, Metabolic Activation: NONE, Method: PREINCUBATION); “inactive; negative” (Test System: AMES SALMONELLA TYPHIMURIUM, Strain/Indicator: TA97, Metabolic Activation: RAT, LIVER, S-9, AROCLOR 1254, Method: PREINCUBATION); “inactive; negative” (Test System: AMES SALMONELLA TYPHIMURIUM, Strain/Indicator: TA98, Metabolic Activation: HAMSTER, LIVER, S-9, AROCLOR 1254, Method: STANDARD PLATE); “inactive; negative” under setting [1]; “inactive; negative” under setting [2]; “inactive; negative” (Test System: AMES SALMONELLA TYPHIMURIUM, Strain/Indicator: TA100, Metabolic Activation: HAMSTER, LIVER, S-9, AROCLOR 1254, Method: STANDARD PLATE). For the same compound, the mutagenic call is “inactive; negative” under setting [3]; “inactive; negative” under setting [4]; “inactive; negative” (Test System: AMES SALMONELLA TYPHIMURIUM, Strain/Indicator: TA102, Metabolic Activation: NONE, Method: PREINCUBATION); “inactive; negative” (Test System: AMES SALMONELLA TYPHIMURIUM, Strain/Indicator: TA102, Metabolic Activation: RAT, LIVER, S-9, AROCLOR 1254, Method: PREINCUBATION); “inactive; negative” (Test System: AMES SALMONELLA TYPHIMURIUM, Strain/Indicator: TA1535, Metabolic Activation: HAMSTER, LIVER, S-9, AROCLOR 1254, Method: STANDARD PLATE); “inactive; negative” under setting [5]. Further, the mutagenic call reads like this: under setting [6], “inactive; negative”; (Test System: AMES SALMONELLA TYPHIMURIUM, Strain/Indicator: TA1537, Metabolic Activation: HAMSTER, LIVER, S-9, AROCLOR 1254, Method: STANDARD PLATE) “inactive; negative”; under setting [7], “inactive; negative”; under setting [8], “inactive; negative”; (Test System: AMES SALMONELLA TYPHIMURIUM, Strain/Indicator: TA1538, Metabolic Activation: HAMSTER, LIVER, S-9, AROCLOR 1254, Method: STANDARD PLATE) “inactive; negative”; under setting [9], “inactive; negative”. Besides, the mutagenic call is, setting by setting: under setting [10], “inactive; negative”; (Test System: CHINESE HAMSTER V-79, Strain/Indicator: V-79/6-THIOGUANINE, Metabolic Activation: NONE) “active; positive”; (Test System: CHINESE HAMSTER V-79, Strain/Indicator: V-79/6-THIOGUANINE, Metabolic Activation: S-9) “inactive; negative”; (Test System: Mouse lymphoma, Strain/Indicator: L5178Y (tk+/tk-), Metabolic Activation: None, Method: Suspension/plate) “inactive; negative”; (Test System: Mouse lymphoma, Strain/Indicator: L5178Y (tk+/tk-), Metabolic Activation: Rat, Liver, S-9, Aroclor 1254, Method: Suspension/plate) “inactive; negative”.
`c1ccc2c(c1)COC2`: the mutagenic call under setting [11] was “active; positive”.
For `CCCCO[C@@H](CC)CO`, the mutagenic call by setting is: under setting [11], “inactive; negative”; (Test System: AMES SALMONELLA TYPHIMURIUM, Strain/Indicator: TA98, Metabolic Activation: RAT LIVER S-9, PHENOBARBITAL AND BETA-NAPHTHOFLAVONE, Method: PREINCUBATION) “inactive; negative”; under setting [12], “inactive; negative”; (Test System: AMES SALMONELLA TYPHIMURIUM, Strain/Indicator: TA100, Metabolic Activation: RAT LIVER S-9, PHENOBARBITAL AND BETA-NAPHTHOFLAVONE, Method: PREINCUBATION) “inactive; negative”; (Test System: AMES SALMONELLA TYPHIMURIUM, Strain/Indicator: TA1535, Metabolic Activation: NONE, Method: PREINCUBATION) “inactive; negative”; (Test System: AMES SALMONELLA TYPHIMURIUM, Strain/Indicator: TA1535, Metabolic Activation: RAT LIVER S-9, PHENOBARBITAL AND BETA-NAPHTHOFLAVONE, Method: PREINCUBATION) “inactive; negative”. For the same compound, the mutagenic call runs as follows: (Test System: AMES SALMONELLA TYPHIMURIUM, Strain/Indicator: TA1537, Metabolic Activation: NONE, Method: PREINCUBATION) “inactive; negative”; (Test System: AMES SALMONELLA TYPHIMURIUM, Strain/Indicator: TA1537, Metabolic Activation: RAT LIVER S-9, PHENOBARBITAL AND BETA-NAPHTHOFLAVONE, Method: PREINCUBATION) “inactive; negative”; (Test System: E.COLI, Strain/Indicator: WP2UVRA/PKM101, Metabolic Activation: NONE, Method: PREINCUBATION) “inactive; negative”; (Test System: E.COLI, Strain/Indicator: WP2UVRA/PKM101, Metabolic Activation: RAT LIVER S-9, PHENOBARBITAL AND BETA-NAPHTHOFLAVONE, Method: PREINCUBATION) “inactive; negative”.
Regarding `CC1=CC(C=O)C(C=O)=C[C@@H]2CC(C)(C)C[C@H]12` (some centres not stated), the mutagenic call was “inactive; negative” under setting [1]; “inactive; negative” under setting [3]; “inactive; negative” (Test System: AMES SALMONELLA TYPHIMURIUM, Strain/Indicator: TA2637, Metabolic Activation: NONE, Method: STANDARD PLATE); “inactive; negative” (Test System: CHINESE HAMSTER V-79, Strain/Indicator: V-79/6-THIOGUANINE (HGPRT), Metabolic Activation: NONE).
Turning to `C=C(C)C1CCC(=C)C2C3=C(C[C@H](C)C3=O)C(=O)C(C)=C[C@@H]12` (some centres not stated), the mutagenic call runs as follows: under setting [1], “inactive; negative”; (Test System: AMES SALMONELLA TYPHIMURIUM, Strain/Indicator: TA98, Method: STANDARD PLATE) “inactive; negative”; under setting [3], “inactive; negative”; (Test System: AMES SALMONELLA TYPHIMURIUM, Strain/Indicator: TA100, Method: STANDARD PLATE) “inactive; negative”.
For `Cc1ccc(S(=O)(=O)N2C3c4ccccc4-c4ccccc4C32)cc1` (configuration not stated), the mutagenic call under setting [3] was “active; positive”.
On to `Clc1nncc2ccncc12`, for which the mutagenic call is, setting by setting: under setting [11], “inactive; negative”; (Test System: AMES SALMONELLA TYPHIMURIUM, Strain/Indicator: TA98, Metabolic Activation: RAT, LIVER, S-9, PCB, Method: PREINCUBATION) “inactive; negative”; under setting [12], “inactive; negative”; (Test System: AMES SALMONELLA TYPHIMURIUM, Strain/Indicator: TA100, Metabolic Activation: RAT, LIVER, S-9, PCB, Method: PREINCUBATION) “inactive; negative”.
